Data set [1] relates to CD73. The note with it: cited from earlier work; for turnover rate: substrate of CD73; for Km: AMP as substrate; for specific activity: AMP.
Data set [2] concerns the target T1, CD73 (Homo sapiens, UniProt P21589, K145S/K147S/K478S/N311D/N333D/N403D/N53D/T376A).
T1 construct: His6 (C); made in house
T1 sequence (P21589 27-549 N53D/K145S/K147S/N311D/N333D/T376A/N403D/K478S limits assumed): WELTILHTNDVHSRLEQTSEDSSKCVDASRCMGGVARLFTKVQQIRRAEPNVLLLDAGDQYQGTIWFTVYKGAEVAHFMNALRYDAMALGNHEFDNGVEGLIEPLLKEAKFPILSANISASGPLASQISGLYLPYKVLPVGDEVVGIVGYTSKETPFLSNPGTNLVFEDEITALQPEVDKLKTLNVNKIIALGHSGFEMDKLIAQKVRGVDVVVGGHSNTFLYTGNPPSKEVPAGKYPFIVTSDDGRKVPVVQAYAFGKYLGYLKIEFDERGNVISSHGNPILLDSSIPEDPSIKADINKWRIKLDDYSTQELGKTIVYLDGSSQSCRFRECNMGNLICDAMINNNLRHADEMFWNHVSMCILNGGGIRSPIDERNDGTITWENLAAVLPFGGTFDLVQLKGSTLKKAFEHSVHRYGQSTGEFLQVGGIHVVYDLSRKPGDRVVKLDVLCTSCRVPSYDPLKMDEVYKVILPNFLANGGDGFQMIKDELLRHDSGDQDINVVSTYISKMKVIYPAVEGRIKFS
In words: Crystallographic fragment screening by crystal soaking, open form of CD73. It is filed as binding. The method, then: Purified CD73 was concentrated to 7 mg/mL, and hanging drop crystallizations were set up versus 100 mM Tris pH 7.8 and 10% PEG6000, using equal amounts of protein and reservoir solution. Crystallisation experiments were carried out at 19 °C. Following crystal formation (1–2 days), the crystals were transferred to soaking solution containing reservoir solution with additional commercially available nucleotides or fragments (see Table S1) at concentrations between 2 and 100 mM. Crystals were then transferred to cryo solution containing an additional 20% glycerol, soaked for ~ 2–5 min and flash frozen in liquid nitrogen.
X-ray data collection was carried out at 100 K using a wavelength of 0.91841 Å on beamline 14.1 of the Berlin Synchrotron (BESSY, Berlin, Germany) equipped with a PILATUS 6 M detector [43]. All datasets were indexed, integrated, scaled and converted to structure factor amplitudes using XDSAPP [44] and AIMLESS [45]. The crystals belong to crystal form II of CD73 (pdb id 4h1y), which was used as a starting model for refinement. Coot and REFMAC5 [47] were used for model building and refinement. The final structures were validated using PROCHECK [48] and outliers in the Ramachandran plot were checked manually.
The HZB fragment library used for this work contains 102 compounds [41]. […] The presence of 12 compounds containing a nucleoside moiety in the fragment library contributed to the high hit rate of 23.5%.

Data set [3] concerns the target T1, CD73. In words: Substrate preference of CD73 for nucleoside monophosphates, malachite green assay. It is filed as biochemical. The note with it: 1 mM substrate; for percentage activity relative to AMP (100%): 1.25 ng CD73; for decrease in absolute activity (relative to AMP) compared with the ribonucleotide equivalent: deoxyribo form vs ribo form. The method, then:
Each assay consisted of reaction buffer A (50 mM Tris–HCl pH 7.5, 100 mM NaCl, 1 mM MgCl2) to which the appropriate substrate and/or inhibitors (see Table S1) were added. Dissolved compounds were immediately used for the inhibition assays. The reactions were generally initiated by the addition of protein. The protein concentrations, substrates and inhibitors used for the various experiments are detailed below. In all experiments, reactions were monitored over a 10-min period during which samples were taken at regular intervals. At each desired time point, a malachite green/molybdate (1:1) solution was added to the sample, which simultaneously terminated the assay and also allowed the detection of the produced phosphate ions. These reaction mixtures were incubated at 25 °C for 25 min, followed by measurement of the absorbance at 620 nm. A standard curve (0–50 μM orthophosphate) was performed prior to each assay and was used to calculate the phosphate concentration. All measurements were carried out in triplicate. […] The specific activity (μmol Pi/min/mg protein) was calculated from the initial reaction rates and was used to determine when the protein refolding process had reached completion. […] Kinetic values were determined by fitting the Michaelis–Menten equation to the initial reaction rates using GraphPad Prism (GraphPad Software, La Jolla, CA, USA).

The next data set addresses rat CD73. The following applies: cited from earlier work.
On the set-up of data set [4]: method as in earlier work. The note with it: last proton on the β-phosphonate group; cited from earlier work.
Data set [5] deals with CD73. The following applies: competitive inhibitor of CD73, cited from earlier work.
The target in data set [6] is T1, CD73. In words: CD73 inhibition, malachite green assay. It is filed as biochemical. The method, then:
(§1) In this study, enzyme activity and inhibition data was characterised using a modified malachite green assay. Each assay consisted of reaction buffer A (50 mM Tris–HCl pH 7.5, 100 mM NaCl, 1 mM MgCl2) to which the appropriate substrate and/or inhibitors (see Table S1) were added. Dissolved compounds were immediately used for the inhibition assays. The reactions were generally initiated by the addition of protein. The protein concentrations, substrates and inhibitors used for the various experiments are detailed below. In all experiments, reactions were monitored over a 10-min period during which samples were taken at regular intervals. At each desired time point, a malachite green/molybdate (1:1) solution was added to the sample, which simultaneously terminated the assay and also allowed the detection of the produced phosphate ions. These reaction mixtures were incubated at 25 °C for 25 min, followed by measurement of the absorbance at 620 nm. A standard curve (0–50 μM orthophosphate) was performed prior to each assay and was used to calculate the phosphate concentration. All measurements were carried out in triplicate.
To study the inhibition kinetics of CD73 against a panel of commercially available nucleotide-diphosphate analogues (AMPCP, GMPCP, dUMPCP and CMPCP; see Table S1), their IC50 values were determined. In these tests, CD73 protein (1.25 ng) was incubated in reaction buffer A containing various inhibitor concentrations (0.015, 0.031, 0.061, 0.12, 0.24, 0.49, 0.98, 1.95, 3.91, 7.81, 15.62, 31.25, 62.5, 125, 250 and 500 μM). […] Dose–response curves were plotted in GraphPad Prism (GraphPad Prism Software, La Jolla, CA, USA), and the inflection point of each curve was used to determine the IC50 value of each inhibitor. The IC50 values were then used to calculate the Ki value of each inhibitor using the Cheng-Prusoff equation [51].

Data set [7] has as its target T1, CD73. In words: Michaelis–Menten kinetics of CD73-mediated AMP hydrolysis, malachite green assay. It is filed as biochemical. The note with it: AMP 5-200 μM, 1.25 ng CD73. The method, then:
as §1, with “A standard curve (0–50 μM orthophosphate) was performed prior to each assay and was used to calculate the phosphate concentration. All measurements were carried out in triplicate.” left out
The specific activity (μmol Pi/min/mg protein) was calculated from the initial reaction rates and was used to determine when the protein refolding process had reached completion. […] Kinetic values were determined by fitting the Michaelis–Menten equation to the initial reaction rates using GraphPad Prism (GraphPad Software, La Jolla, CA, USA). […]

Where “and” joins values, the source holds several entries; their conditions need not be identical. Equal values may be shown once. Where a name gives a salt, the structure may show the parent alone. Read-outs that look alike come from different tables or passages of the source.

For `NC(=O)c1ccc[n+]([C@@H]2O[C@H](COP(=O)([O-])O)[C@@H](O)[C@H]2O)c1` [nicotinamide mononucleotide], the turnover rate in the data set with CD73 [1] is 110 nmol/min/mg. As for `Cn1c(=O)c2c(ncn2C)n(C)c1=O` [caffeine], the “binding to the nucleoside binding site (crystal structure)” value (from here on “binding to the nucleoside binding site”) on CD73 [2] is on record as “did bind to the nucleoside binding site”. For the compound `Nc1nc2c(ncn2[C@@H]2O[C@H](COP(=O)([O-])[O-])[C@@H](O)[C@H]2O)c(=O)[nH]1.[Na+].[Na+]` [GMP, Guanosin-5'-monophosphat Dinatriumsalz], at CD73 [3], the “percentage activity relative to AMP (100%)” value is 33.2%. Take `Nc1ccn([C@H]2C[C@H](O)[C@@H](COP(=O)(O)O)O2)c(=O)n1` [dCMP, 2′-Deoxycytidine 5′-monophosphate]: the “percentage activity relative to AMP (100%)” value on CD73 [3] was found to be 47.6%. Regarding `O=[N+]([O-])c1ccc(O)c(O)c1` [4-nitrocatechol], the “binding to the nucleoside binding site” value on CD73 [2] is “did bind to the nucleoside binding site”.

What is called Ki is a measure of affinity in units of concentration, obtained from inhibition or displacement. In the case of `O=c1ccn([C@@H]2O[C@H](COP(=O)(O)CP(=O)(O)O)[C@@H](O)[C@H]2O)c(=O)[nH]1` [UMPCP], on rat CD73, the Ki was 1830 ± 530 nM.

As to `NC(=O)c1ccc[n+]([C@@H]2O[C@H](COP(=O)([O-])OP(=O)(O)OC[C@H]3O[C@@H](n4cnc5c(N)ncnc54)[C@H](O)[C@@H]3O)[C@@H](O)[C@H]2O)c1` [NAD^+], the turnover rate with CD73 [1] was 5 nmol/min/mg.

A word on the pKa: it is the pH at which an ionisable group is half protonated. Consider `Nc1ncnc2c1ncn2[C@@H]1O[C@H](COP(=O)(O)CP(=O)(O)O)[C@@H](O)[C@H]1O` [AMPCP, Adenosin 5'-[α,β-methylene] diphosphoric acid], for which the pKa in data set [4] is on record as 8.3. Moreover, the Ki at rat CD73 is 197 ± 5 nM.

`O=c1[nH]cc(I)c(=O)[nH]1` [5-iodouracil]: the “binding to the nucleoside binding site” value at CD73 [2] is on record as “did bind to the nucleoside binding site”. In the case of `Nc1ncnc2c1ncn2[C@@H]1O[C@H](COP(=O)(O)OP(=O)(O)OP(=O)(O)O)[C@@H](O)[C@H]1O` [ATP], the Ki on CD73 [5] (ref 32) is 1500 nM; on CD73 [5] (ref 33), 8900 nM. Consider `Cc1cn([C@H]2C[C@H](O)[C@@H](COP(=O)([O-])[O-])O2)c(=O)[nH]c1=O.[Na+].[Na+]` [dTMP, Thymidine 5'-Monophosphate Natriumsalz], for which the “binding to the nucleoside binding site” value on CD73 [2] was “only low occupancy binding”. In addition, the “percentage activity relative to AMP (100%)” value at CD73 [3] turned out to be 49.4%. On to `Cc1cc2nc3c(=O)[nH]c(=O)nc-3n(C[C@H](O)[C@H](O)[C@H](O)CO)c2cc1C` [riboflavin], for which the “binding to the nucleoside binding site” value at CD73 [2] is on record as “did bind to the nucleoside binding site”. Turning to `Nc1nc2c(ncn2[C@H]2C[C@H](O)[C@@H](COP(=O)(O)O)O2)c(=O)[nH]1` [dGMP, 2′-Deoxyguanosine 5′-monophosphate], at CD73 [3], the “percentage activity relative to AMP (100%)” value was 4.8% and the “decrease in absolute activity (relative to AMP) compared with the ribonucleotide equivalent” value turned out to be 28.4%. For `Nc1ncnc2c1ncn2[C@@H]1O[C@H](COP(=O)(O)OP(=O)(O)O)[C@@H](O)[C@H]1O` [ADP], the Ki on CD73 [5] (ref 29) was 3880 nM; at CD73 [5] (ref 32), 82 nM; at CD73 [5] (ref 33), 910 nM.

As usually defined, the IC50 is the concentration that inhibits the measured activity by half. At CD73 [6], `Nc1nc2c(ncn2[C@@H]2O[C@H](COP(=O)(O)CP(=O)(O)O)[C@@H](O)[C@H]2O)c(=O)[nH]1` [GMPCP, α,β-Methyleneguanosine 5′-diphosphate sodium salt] yielded an IC50 of 1420 ± 20 nM and a Ki of 135 ± 2.7 nM.

For `Nc1ncnc2c1ncn2[C@H]1C[C@H](O)[C@@H](COP(=O)(O)O)O1` [dAMP, 2′-Deoxyadenosine 5′-monophosphate], the “decrease in absolute activity (relative to AMP) compared with the ribonucleotide equivalent” value at CD73 [3] is given as 28.8%.

As to `Nc1ccn([C@@H]2O[C@H](COP(=O)(O)O)[C@@H](O)[C@H]2O)c(=O)n1` [CMP, Cytidine 5′-monophosphate], on CD73 [3], the “percentage activity relative to AMP (100%)” value is 73.4%.

For the compound `O=c1ccn([C@H]2C[C@H](O)[C@@H](COP(=O)(O)CP(=O)(O)O)O2)c(=O)[nH]1` [dUMPCP, 2'-Deoxyuridine-5'-[(α,β)-methyleno]diphosphate, Sodium salt], the Ki at CD73 [6] (calculated from IC50 with the Cheng-Prusoff equation, human deglycosylated CD73 construct, read-out: Ki) was 374 ± 6.9 nM. At CD73 [6] (comparison between CMPCP and dUMPCP), this compound had a loss in affinity of 1.2 fold. The IC50 at CD73 [6] (read-out: IC50) was 3940 ± 10 nM. What is called Km is the substrate concentration at which the rate is half of its maximum. In the case of `Nc1ncnc2c1ncn2[C@@H]1O[C@H](COP(=O)(O)O)[C@@H](O)[C@H]1O` [AMP, Adenosine 5'-monophosphate], the Km is 6.6 µM and 7 µM in the data set with CD73 [1] (same construct after refolding); 1 to 50 µM in the data set on CD73 [1] (ref 8); 59 µM in the data set on CD73 [1] (ref 29). Besides, the specific activity with CD73 [1] (human CD73 purified from an adenocarcinoma cell line) is recorded as 130 U/mg; in the data set with CD73 [1] (this construct after refolding) it was 577.2 U/mg. The turnover rate in the data set on CD73 [1] is 856 nmol/min/mg. Also, the Vmax on CD73 [7] worked out at 301.2 ± 2.9 U/mg. With `O=c1ccn([C@@H]2O[C@H](COP(=O)([O-])[O-])[C@@H](O)[C@H]2O)c(=O)[nH]1.[Na+].[Na+]` [UMP, Uridin-5'-Monophosphate Dinatriumsalz], the “percentage activity relative to AMP (100%)” value at CD73 [3] came to 87.1%.

(Values after article PMC8677862, “Substrate binding modes of purine and pyrimidine nucleotides to human ecto-5′-nucleotidase (CD73) and inhibition by their bisphosphonic acid derivatives” (Purinergic Signalling, 2021).)
